How the values were obtained:
[1] = tested on: peptide-specific T cell cultures; assay: T cell phenotyping and intracellular cytokine staining (IFN-gamma, TNF-alpha); assay type: cell-based, human; parameters: key: +: cytokine: Immunogenicity of the peptide shown by intracellular cytokine staining (IFN-gamma, TNF-alpha); +*: *highlights data from published resources.; *highlights data from published resources
Procedure: To characterize and quantify the responsive cells upon peptide stimulation, the peptide-specific T cell cultures with positive ELISpot results were further analyzed with T cell phenotyping and intracellular cytokine staining (ICS) assessed by flow cytometry.
The cells of the respective continued short-term T cell culture as well as the DMSO-stimulated and an unresponsive T cell line were harvested into 2 mL reaction tubes and centrifuged at 400×g for 10 min. The supernatant was discarded and the pellet of the unresponsive T cell line was resuspended in 100 μL ELISpot medium and used as unstimulated and unstained control. The pellets of the responsive and the DMSO-stimulated T cell lines were resuspended in 200 μL ELISpot medium and split equally into two wells of a V-bottom 96-well plate. One well of the responsive T cell lines was re-stimulated with 10 μg/mL of its specific peptide while the other well was mock stimulated with 0.1% (v/v) DMSO. As positive control, one well of the DMSO-stimulated T cell line was activated by treatment with 20 ng/ml Phorbol 12-myristate 13-acetate and 1 μM lonomycin. Then, 1:10 diluted GolgiStop (containing monensin) and 1:15 diluted GolgiPlug (containing brefeldin A) were added to all wells to inhibit intracellular transport processes. Monensin inhibits the trans-Golgi transport, while brefeldin A inhibits transport between the ER and the Golgi (Chardin and McCormick, 1999; Mollenhauer et al., 1990). The stimulated cells were incubated for 5 h at standard culture conditions.
After incubation, the cells were resuspended, centrifuged at 400×g for 5 min and the supernatant was discarded. Then, the cells were resuspended in 50 μL cold staining buffer (unstained) or 50 μL cold staining buffer containing the phenotyping antibodies against CD3, CD4, CD8 and the LIVE/DEAD™ Fixable Near-IR Dead Cell Stain (unstimulated and stimulated) and incubated at 4° C. for 30 min. After the surface staining, the cells were washed twice with 200 μL staining buffer and centrifugation at 1400 rpm, followed by fixation with 1% paraformaldehyde (PFA) solution for 15 min at 4° C. All following centrifugation steps were carried out at 1400 rpm for 5 min. After fixation, the cells were again washed twice with 200 μL cold staining buffer and were then resuspended in 100 μL 1× perm/wash buffer diluted in PBS (provided is 10×) for 15 min at 4° C. for cell membrane permeabilization. Subsequently, the plate was centrifuged and the supernatant was discarded. The cells were resuspended in 50 μL perm/wash buffer diluted in PBS (unstained) or 50 μL perm/wash buffer containing the intracellular cytokine antibodies against IFNγ, TNFα and granzyme B (unstimulated and stimulated) for 30 min at 4° C. After intracellular cytokine staining, the cells were washed twice with 200 μL 1× perm/wash buffer. Then 100 μL fix/perm solution (provided in the BD Cytofix/Cytoperm kit) were added per well. After 20 min of incubation at 4° C., the cells of each well were washed twice with 200 μL 1× perm/wash buffer before being resuspended in 100 μL staining buffer and stored at 4° C. overnight.
OneComp eBeads™ (eBeads) and ArC™ Amine Reactive Compensation beads (ArC beads) were stained as compensation controls. For each antibody, 50 μL of the eBeads suspension were stained with the same dilution as used for staining the cells. The ArC beads were stained with 1 μL LIVE/DEAD™ Fixable Near-IR Dead Cell Stain stock solution in 50 μL staining buffer. The beads were incubated at 4° C. for 30 min and were then washed two times with 1 mL staining buffer and centrifugation at 400×g. Finally, the stained beads were resuspended in 400 μL staining buffer, one drop of ArC™ negative beads was added to the labelled ArC beads, and all beads were stored at 4° C. overnight.
On the next day, the samples and the single stained compensation controls were acquired at a BD FACS Canto™ II analyzer using the BD FACS Diva Software Version 6. […]

[2] = tested on: short-term antigen-specific T cell lines generated from PBMCs; assay: Interferon-γ ELISpot assay on short-term antigen-specific T cell lines; assay type: cell-based, human; settings: for rates of immunoactivation in PBMC samples, CD8 T cell responses and/or numbers of HPV16 positive cell lines presenting the peptide as HLA-complexes: comparison among the peptides in Table 1

Substance	cytokine: Immunogenicity of the peptide shown by intracellular cytokine staining (IFN-gamma, TNF-alpha) ([1]; HLA restriction A24)	ELISpot: Immungenicity of the peptide shown by IFN-gamma ELISPOT analysis ([2]; HLA restriction A24)	ELISpot: Immungenicity of the peptide shown by IFN-gamma ELISPOT analysis ([2]; HLA restriction B15)	other results
84 (PYAVCDKCLKF; Human papillomavirus 16) [compound 84]	+	+		
87 (PDRAHYNIVTF; Human papillomavirus 16) [compound 87]	+	+		
88 (DRAHYNIVTF; Human papillomavirus 16) [compound 88]	+	+		
89 (HYNIVTFCC; Human papillomavirus 16) [compound 89]	+	+		
92 (HYCYSLYGTTL; Human papillomavirus 16) [compound 92]	+	+		
97 (RPRKLPQL; Human papillomavirus 16) [compound 97]				cytokine: Immunogenicity of the peptide shown by intracellular cytokine staining (IFN-gamma, TNF-alpha) ([1]; HLA restriction B07): +; ELISpot: Immungenicity of the peptide shown by IFN-gamma ELISPOT analysis ([2]; HLA restriction B07): +; rates of immunoactivation in PBMC samples, CD8 T cell responses and/or numbers of HPV16 positive cell lines presenting the peptide as HLA-complexes [2]: highest rates of immunoactivation in PBMC samples, to induce the strongest CD8 T cell responses, and/or shown to be presented as HLA-complexes by the highest numbers of HPV16 positive cell lines
99 (RPRKLPQLCTE; Human papillomavirus 16) [compound 99]				cytokine: Immunogenicity of the peptide shown by intracellular cytokine staining (IFN-gamma, TNF-alpha) ([1]; HLA restriction B07): +; ELISpot: Immungenicity of the peptide shown by IFN-gamma ELISPOT analysis ([2]; HLA restriction B07): +
101 (NIRGRWTGRCM; Human papillomavirus 16) [compound 101]			+	cytokine: Immunogenicity of the peptide shown by intracellular cytokine staining (IFN-gamma, TNF-alpha) ([1]; HLA restriction B07): +; cytokine: Immunogenicity of the peptide shown by intracellular cytokine staining (IFN-gamma, TNF-alpha) ([1]; HLA restriction B15): +; ELISpot: Immungenicity of the peptide shown by IFN-gamma ELISPOT analysis ([2]; HLA restriction B07): +
102 (EPDRAHYNIV; Human papillomavirus 16) [compound 102]				cytokine: Immunogenicity of the peptide shown by intracellular cytokine staining (IFN-gamma, TNF-alpha) ([1]; HLA restriction B07): +; ELISpot: Immungenicity of the peptide shown by IFN-gamma ELISPOT analysis ([2]; HLA restriction B07): +
107 (KQQLLRREVY; Human papillomavirus 16) [compound 107]			+	cytokine: Immunogenicity of the peptide shown by intracellular cytokine staining (IFN-gamma, TNF-alpha) ([1]; HLA restriction B15): +; rates of immunoactivation in PBMC samples, CD8 T cell responses and/or numbers of HPV16 positive cell lines presenting the peptide as HLA-complexes [2]: highest rates of immunoactivation in PBMC samples, to induce the strongest CD8 T cell responses, and/or shown to be presented as HLA-complexes by the highest numbers of HPV16 positive cell lines
108 (AFRDLCIVY; Human papillomavirus 16) [compound 108]			+	cytokine: Immunogenicity of the peptide shown by intracellular cytokine staining (IFN-gamma, TNF-alpha) ([1]; HLA restriction B15): +; rates of immunoactivation in PBMC samples, CD8 T cell responses and/or numbers of HPV16 positive cell lines presenting the peptide as HLA-complexes [2]: highest rates of immunoactivation in PBMC samples, to induce the strongest CD8 T cell responses, and/or shown to be presented as HLA-complexes by the highest numbers of HPV16 positive cell lines
109 (LQPETTDLY; Human papillomavirus 16) [compound 109]				cytokine: Immunogenicity of the peptide shown by intracellular cytokine staining (IFN-gamma, TNF-alpha) ([1]; HLA restriction B15): +; rates of immunoactivation in PBMC samples, CD8 T cell responses and/or numbers of HPV16 positive cell lines presenting the peptide as HLA-complexes [2]: highest rates of immunoactivation in PBMC samples, to induce the strongest CD8 T cell responses, and/or shown to be presented as HLA-complexes by the highest numbers of HPV16 positive cell lines
145 (KISEYRHY; Human papillomavirus 16) [compound 145]			+	
146 (RGRWTGRCM; Human papillomavirus 16) [compound 146]			+	
147 (AGQAEPDRAHY; Human papillomavirus 16) [compound 147]			+	
148 (FYSKISEY; Human papillomavirus 16) [compound 148]			+	

Reference: patent US20260240976A1, “T[…] VACCINES BASED ON VALIDATED TARGET EPITOPES” (Deutsches Krebsforschungszentrum Stiftung des öffentlichen …, priority 2023, published 2026)
